Assay results as given in paper PMC10653066 (ACS Omega, 2023).
Read-outs that look alike come from different tables or passages of the source.

Legend:
YFV 17D [1] = assay: microbe, parasite or virus in culture; type: cell-based, Yellow fever virus; conditions: for EC50: Yellow fever virus, Huh-7, read-out: EC50 (YFV 17D, μM)
YFV 17D [2] = conditions: read-out: EC50 against YFV; cited from earlier work

Compound	activity against YFV (words, SAR discussion) (YFV 17D [1])	also measured
4-((1-((6-Acetylnaphthalen-1-yl)sulfonyl)-5-amino-1H-1,2,4-triazol-3-yl)amino)benzonitrile [RCB22056]	inactive	
Nc1nc(Nc2ccc(Cl)c(Cl)c2)n(S(=O)(=O)c2ccc3ccccc3c2)n1 [RCB17160, N^5-(3,4-Dichlorophenyl)-1-(naphthalen-2-ylsulfonyl)-1H-1,2,4-triazole-3,5-diamine]	did not display any activity	
CC(=O)c1ccc2c(S(=O)(=O)n3nc(Nc4ccc(C#N)c(Cl)c4)nc3N)cccc2c1 [RCB22055, 4-((1-((6-Acetylnaphthalen-1-yl)sulfonyl)-5-amino-1H-1,2,4-triazol-3-yl)amino)-2-chlorobenzonitrile]	low micromolar activity	
COc1ccc(Nc2nc(N)n(S(=O)(=O)c3cccc4ccccc34)n2)cc1 [RCB16086, N^3-(4-Methoxyphenyl)-1-(naphthalen-1-ylsulfonyl)-1H-1,2,4-triazole-3,5-diamine]	complete loss of potency	
N#Cc1c(Nc2ccc(F)c(F)c2)n[nH]c1NS(=O)(=O)c1ccc2ccccc2c1 [RCB16004, N-(4-Cyano-3-((3,4-difluorophenyl)amino)-1H-pyrazol-5-yl)naphthalene-2-sulfonamide]		EC50 (YFV 17D [1]): > 36 µM
N#Cc1c(Nc2ccc(Cl)cc2)n[nH]c1NS(=O)(=O)c1ccc2ccccc2c1 [RCB16002, N-(3-((4-Chlorophenyl)amino)-4-cyano-1H-pyrazol-5-yl)naphthalene-2-sulfonamide]		EC50 (YFV 17D [1]): 7.1 µM
N#Cc1c(Nc2ccc(F)cc2)n[nH]c1NS(=O)(=O)c1ccc2ccccc2c1 [RCB16003, N-(4-Cyano-3-((4-fluorophenyl)amino)-1H-pyrazol-5-yl)naphthalene-2-sulfonamide]		EC50 (YFV 17D [2]): 3.2 µM
